What was measured:
[1] = tested on: oil field isolated anaerobic consortium, mainly SRB; experiment: Biocidal efficacy (MBC, complete bacterial kill) against anaerobic bacteria in contaminated salt solution; format: cell-based, sulfate reducing bacteria (SRB); settings: 40° C., 24 hours
Description: Inside an anaerobic chamber (BACTRON anaerobic chamber), a deaerated sterile salt solution (3.1183 g of NaCl, 1.3082 mg of NaHCO3, 47.70 mg of KCl, 72.00 mg of CaCl2, 54.49 mg of MgSO4, 172.28 mg of Na2SO4, 43.92 mg of Na2CO3 in 1 L water) was contaminated with an oil field isolated anaerobic consortium, mainly SRB, at final bacterial concentrations of 10^6 to 10^7 CFU/mL. The aliquots of this contaminated water were then treated with NaOPP and DMOZ, or the NaOPP/DMOZ combination, NaOPP and Tris Nitro, or the NaOPP/Tris Nitro combination, NaOPP and HHT, or the NaOPP/HHT combination at different active concentration levels. […] Tables 1-3 summarize the efficacy of each biocide and their blends, and the Synergy Index of each combination.

[2] = tested on: Pseudomonas aeruginosa, ATCC 10145 and Staphylococcus aureus, ATCC 6538; experiment: Biocidal efficacy (MBC, complete bacteria kill) against aerobic bacteria in contaminated NaCl solution; format: cell-based; settings: 37° C., 24 hours
Description: A sterile NaCl solution (0.85%) was contaminated with Pseudomonas aeruginosa, ATCC 10145 and Staphylococcus aureus, ATCC 6538 at final bacterial concentration of ca. 10^6 CFU/mL. The aliquots of this contaminated water were then treated with NaOPP and Tris Nitro, or the NaOPP/Tris Nitro combination, NaOPP and DMOZ or the NaOPP/DMOZ combination at different active concentration levels. After the mixtures were incubated at 37° C. for 24 hours, the biocidal efficacy was determined by minimum tested biocide concentration for complete bacteria kill in the aliquots. Tables 4 and 5 summarize the efficacy of each biocide and their blends, and the Synergy Index of each combination.

[3] = DMOZ alone or DMOZ part of NaOPP/DMOZ blend
[4] = NaOPP alone or NaOPP part of NaOPP/DMOZ blend
[5] = NaOPP alone or NaOPP part of NaOPP/Tris Nitro blend
[6] = Tris Nitro alone or Tris Nitro part of NaOPP/Tris Nitro blend

CC1(C)COCN1 [DMOZ, 4,4-dimethyloxazolidine]
MBC (active ppm) DMOZ [1, 3]: 74.1 active ppm | Average MBC (active ppm) DMOZ [2, 3]: 86.1 active ppm

OCCN1CN(CCO)CN(CCO)C1 [HHT, hexahydro-1,3,5-tris(2-hydroxyethyl)-s-triazine]
MBC (active ppm) HHT ([1]; HHT alone or HHT part of NaOPP/HHT blend): 111.1 active ppm

[Na+].[O-]c1ccccc1-c1ccccc1 [NaOPP, sodium o-phenylphenylate]
MBC (active ppm) NaOPP [1, 4]: 333.3 active ppm | MBC (active ppm) NaOPP ([1]; NaOPP alone or NaOPP part of NaOPP/HHT blend): 500 active ppm | MBC (active ppm) NaOPP [1, 5]: 500 active ppm | Average MBC (active ppm) NaOPP [2, 4]: 292.9 active ppm | MBC (active ppm) NaOPP [2, 5]: 266.3 active ppm

O=[N+]([O-])C(CO)(CO)CO [Tris Nitro, tris(hydroxymethyl)nitromethane]
MBC (active ppm) Tris Nitro [1, 6]: 44.4 active ppm | MBC (active ppm) Tris Nitro [2, 6]: 25.1 active ppm
